# Measured values taken from PMC5974751, “NKp44-Derived Peptide Binds Proliferating Cell Nuclear Antigen and Mediates Tumor Cell Death” (Frontiers in Immunology, 2018).
# Peptide text beside a SMILES is read from it.
# Columns and labels:
# [1] = tested on: B16 melanoma tumor in C57BL/6 mice; experiment: In vivo B16 tumor growth; set-up: species or system mouse; settings: R11-NLS-pep8 5 mg/kg IP, 5-FU 30 mg/kg IP, treatment stopped day 22
# Procedure: Seven-week-old male C57BL/6 mice with an average body weight of 23 g were used in the other experiment. B16 cells suspended at a density of 0.5 × 10^6 cells/100 μl, in serum-free DMEM containing 40% Geltrex, were injected subcutaneously in the left dorsal flank, and allowed to develop tumors. After 6 days, mice were randomly divided into three groups, one group was treated with R11-NLS-pep8, at a dose of 5 mg/kg, intraperitoneally (IP), other group with 5-FU, at a dose of 30 mg/kg, (IP) and mice treated with a 1.44% DMSO/150 mM NaCl solution, (IP) served as the vehicle control. Treatment was done three times a week at least for 4 weeks. Each week, tumors size was evaluated by measuring their length (L) and width (W), using a Caliper device and tumor volume (V) was calculated according to the equation: V = LW^2/2. After 3 weeks of treatment, mice were euthanized, and tumors volume and weight were measured.
# Figure 5 Effect of R11-NLS-pep8 on 4T1 and B16 in vivo tumor models. (A) 4T1 cells or (C) B16 cells were injected into the nipple pad or flank of young BALB/C females or C57BL/6 males, respectively (day 0). At day 5, mice were divided to subgroups according to mice weight. […] Tumor volume (mm^3) was measured at days as indicated on graphs mean tumor volume (mm^3), (B) 4T1 and (D) B16 were normalized to vehicle/day to show the effect of treatment on tumor volume per day. […]
# [2] = tested on: 4T1 breast cancer tumor in BALB/C mice; experiment: In vivo 4T1 tumor growth; set-up: species or system mouse; settings: for tumor growth suppression vs vehicle, significance on days 19 and 23 / tumor growth suppression vs vehicle, significance on day 28: R11-NLS-pep8 5 mg/kg IV, 5-FU 30 mg/kg; for tumor growth suppression vs vehicle, significance on days 19 and 23: every 2 days, treatment stopped day 22, unpaired t-test, one-tail; for tumor growth suppression vs vehicle, significance on day 28: treatment stopped day 22
# Procedure: Seven-week-old female BALB/C mice with an average body weight of 20 g were used in this experiment. 4T1 cells suspended at a density of 2 × 10^5 cells/50 μl, in serum-free DMEM containing 40% Geltrex, were injected into the left mammary fat pad, and allowed to develop tumors. After 5 days, mice were randomly divided into three groups, one group was treated with R11-NLS-pep8, at a dose of 5 mg/kg, intravenously (IV), other group with 5-FU, at a dose of 30 mg/kg, (IV) and mice treated with a 1.44% DMSO/150 mM NaCl solution, (IV) served as the vehicle control. Treatment was continued following every 2 days at least for 4 weeks. Each week, tumor size was evaluated by measuring their length (L) and width (W), using a Caliper device and tumor volume (V) was calculated according to the equation: V = LW^2/2. After 4 weeks of treatment, mice were euthanized, and tumors volume and weight were measured.
# Figure 5 Effect of R11-NLS-pep8 on 4T1 and B16 in vivo tumor models. (A) 4T1 cells or (C) B16 cells were injected into the nipple pad or flank of young BALB/C females or C57BL/6 males, respectively (day 0). At day 5, mice were divided to subgroups according to mice weight. Treatment was started at day 5 (4T1) or day 6 (B16) and end at day 22. Treatment was administrated every 2 days three times per week; 5-FU was administered intraperitoneally (IP) while R11-NLS-pep8 was administrated intravenously (4T1) or IP (B16). Tumor volume (mm^3) was measured at days as indicated on graphs mean tumor volume (mm^3), (B) 4T1 and (D) B16 were normalized to vehicle/day to show the effect of treatment on tumor volume per day. Statistical analysis was performed on original tumor volume data. Unpaired t-test; one-tail, *p < 0.05.
# [3] = tested on: B16 cells; experiment: Flow cytometry based cell death assay (PI), B16; set-up: species or system murine; settings: 0–8 µM, 24 h
# Procedure: (§1) Peptides were diluted before the incubation with the target cells with free DMEM culture medium to 0–16 µM according to peptide molecular weight. For adding the peptides, 0.5 ml was removed from each well, and 0.5 ml of diluted peptides was added to a final volume of 1 ml, 5% FCS, duplicates. Peptides were incubated with target cells for 24 h, and then the medium was collected, adherent cells were removed with trypsin–EDTA (0.5 ml, 3 min, BI: 03-052-1B), 1 ml of complete medium was added to each well, and the medium was collected (final volume 2.5 ml, on ice). For the cell death assay, samples were then centrifuged (1,300 rpm, 4°C, 5 min), the medium was removed, fresh 1 ml 10% FCS was added, and then 1 µl of 1 mg/ml PI was added to each sample and incubated (15 min, on ice) with the target cells. Before analyzing the samples, samples were centrifuged (1,300 rpm, 4°C, 5 min), the medium was removed, and fresh 0.2 ml FCAS buffer (PBS 1×, 20% FCS, 0.5% NaN3) was added. Samples were then read and analyzed using BD FACSCanto™ II and FlowJo®. APIM peptide and camptothecin (CPT) were used as positive controls ([38], [54]–[56]). Specific cell death was calculated as following: Y = 100*((sample cell death − basal cell death)/(100 − basal cell death)). Basal cell death = % of PI positive cells following incubation in complete culture media.
# [4] = tested on: PANC-1 pancreas ductal adenocarcinoma cells; experiment: PrestoBlue cell viability, PANC-1; type: cell-based, human; settings: PANC-1, PrestoBlue, 24 h; sigmoidal dose–response
# Procedure: (§2) Target cells (2.5 × 10^4 cells/well of a 48-well plate, Corning) were seeded and incubated in 37°C, 5% CO2 for 24 h in 0.5 ml of fresh complete DMEM (10% FBS) culture medium. According to molecular weight peptides were diluted from 8 to 2 µM with 5% FBS containing DMEM culture medium just before the incubation with the target cells. Medium was removed from each well, and 250 µl of diluted peptides was added and incubated for another 24 h at 37°C, 5% CO2. PrestoBlue (A13261, Invitrogen™) solution was prepared by diluting the dye 10-fold with complete DMEM. Medium was discarded from each well, and 250 µl of PrestoBlue solution was added to each well, shake gently and incubated at 37°C for another 1 h. Emission at 560 nm was measured in Premium Quad4 Monochromators plate reader (Tecan). Normalization was done relative to the appropriate control (DMEM or DMSO) to calculate the percentage of viable cells in each group. Selenite (25 µM) was used as a positive control ([52], [53]).
# [5] = tested on: HepG2 hepatocellular carcinoma cells; experiment: PrestoBlue cell viability, HepG2; type: cell-based, human; settings: 24 h, sigmoidal dose–response
# Procedure: as §2
# [6] = tested on: MDA-MB-231 breast adenocarcinoma cells; experiment: PrestoBlue cell viability, MDA-MB-231; type: cell-based, human; settings: MDA-MB-231, PrestoBlue, 24 h; sigmoidal dose–response
# Procedure: as §2
# [7] = Initial toxicity studies in mice; type: in vivo, mouse; settings: 5 mg/kg every 2 days for 3 weeks; data not shown
# Procedure: Initial toxicity studies have been performed with the 5 mg/kg dose injected into mice every 2 days for 3 weeks, and analysis of mouse weight and well-being was meticulously observed during this time. Also, livers, spleens, and lungs were harvested and weight.
# [8] = tested on: pep8–PCNA interaction (recombinant PCNA); experiment: ELISA-based inhibition of biotin-pep8 binding to PCNA; set-up: species or system human; settings: inhibitor 25 µg/ml 1 h, then biotin-pep8 5 µg/ml 1 h, room temperature, O.D. 650 nm
# Procedure: To determine the ability of APIM-based peptide to suppress NKp44-pep8 interaction with PCNA, ELISA plates were coated with recombinant PCNA followed by PBS–skim milk added as described earlier. Plates were then incubated with 25 µg/ml of R11-NLS-pep8 (positive control), R11-NLS-pep8short (negative control), and APIM for 1 h at room temperature followed by addition of biotin-pep8 (5 µg/ml) without washing for 1 h at room temperature. Biotin-pep8 binding to PCNA was detected using streptavidin conjugated HRP (1 h at 1:500 dilution 100 μl/well). Following washing, TMB (100 μl/well DAKO, S1599) was added. O.D. was read at 650 nm (Thermo Electron Corporation Multiskan Spectrum).
# [9] = tested on: B16 melanoma cells; experiment: PrestoBlue cell viability, B16; type: cell-based, murine; settings: 24 h, sigmoidal dose–response
# Procedure: as §2
# [10] = tested on: MDA-MB-231 cells; experiment: Flow cytometry based cell death assay (PI), MDA-MB-231; set-up: species or system human; settings: MDA-MB-231, PI flow cytometry, 0–8 µM, 24 h
# Procedure: as §1
# [11] = tested on: 4T1 cells; experiment: Flow cytometry based cell death assay (PI), 4T1; set-up: species or system murine; settings: 4T1, PI flow cytometry, 0–8 µM, 24 h
# Procedure: as §1
Structure (SMILES),"tumor growth suppression, day 23 [1]","tumor growth suppression vs vehicle, significance on days 19 and 23 [2]","tumor growth suppression vs vehicle, significance on day 28 [2]","ED50, cell death [3] [µM]","ED50, cell viability [4] [µM]","ED50, cell viability [5] [µM]","ED50, cell viability [6] [µM]",mice weights and well-being [7],"organ weights (livers, spleens, lungs) at end of experiment [7]",inhibition of pep8 binding to PCNA [8] [%],growth suppression relative to 5-FU ([2]; R11-NLS-pep8 5 mg/kg IV vs 5-FU IP 30 mg/kg),"ED50, cell viability [9] [µM]","ED50, cell death [10] [µM]","ED50, cell death [11] [µM]"
"O=c1[nH]cc(F)c(=O)[nH]1 [5-FU, reference compound]",significantly suppressed B16 growth,clear yet non-significant on days 19 and 23,significant on day 28,–,–,–,–,–,–,–,–,–,–,–
CC[C@H](C)[C@H](NC(=O)[C@H](CCCNC(=N)N)NC(=O)[C@H](CCCNC(=N)N)NC(=O)[C@H](CCCNC(=N)N)NC(=O)[C@H](CCCNC(=N)N)NC(=O)[C@H](CCCNC(=N)N)NC(=O)[C@H](CCCNC(=N)N)NC(=O)[C@H](CCCNC(=N)N)NC(=O)[C@H](CCCNC(=N)N)NC(=O)[C@H](CCCNC(=N)N)NC(=O)[C@H](CCCNC(=N)N)NC(=O)[C@H](CCCNC(=N)N)NC(C)=O)C(=O)N[C@@H](CCCCN)C(=O)N[C@@H](CCCCN)C(=O)N[C@@H](CCCCN)C(=O)N[C@@H](CCCNC(=N)N)C(=O)N[C@@H](CCCCN)C(=O)N[C@@H](Cc1c[nH]c2ccccc12)C(=O)N[C@@H](CCC(=O)O)C(=O)N[C@@H](C)C(=O)N[C@@H](CO)C(=O)N[C@@H](C)C(=O)N[C@@H](CC(C)C)C(=O)N[C@H](C(=O)N[C@@H](CS)C(=O)N[C@H](C(=O)N[C@@H](CCCNC(=N)N)C(=O)N[C@@H](CC(C)C)C(=O)N[C@H](C(=O)N[C@H](C(=O)N[C@@H](CO)C(=O)N[C@@H](CO)C(=O)N[C@@H](CCCCN)C(=O)N1CCC[C@H]1C(=O)N[C@@H](CCCNC(=N)N)C(=O)N[C@H](C(=O)N[C@H](C(=O)N[C@H](C)C(=O)O)C(C)C)[C@@H](C)O)[C@@H](C)O)C(C)C)[C@@H](C)CC)C(C)C [R11-NLS-pep8] (HELM PEPTIDE1{[ac].R.R.R.R.R.R.R.R.R.R.R.I.K.K.K.R.K.W.E.A.S.A.L.V.C.I.R.L.V.T.S.S.K.P.R.T.V.[dA]}$$$$V2.0; C-terminus assumed),significantly suppressed B16 growth,statistically significant on days 19 and 23,statistically non-significant difference,3.94,7.8,5.9,5.6,No significant changes were observed,No significant changes were observed,35,comparable to the effect of 5-FU,7.1,4.07,3.78
